Results reported in patent US20230265205A1, “METABOLISM-BASED CHIMERIC ANTIGEN RECEPTORS AND METHODS OF TREATMENT” (Arizona Board of Regents on behalf of Arizona State …, priority 2020, published 2023).

Tested on: C57BL/6j bone marrow derived dendritic cells
Experiment: Seahorse extracellular acidification rate (ECAR) assay in glucose-free media
Format: cell-based
Details: PFK15 200 nM, 4 hours
Description: F16BP particles rescues glycolysis even in the presence of glycolytic inhibitor PFK15. In order to test if F16BP can indeed functionally accelerate glycolysis in the presence of low glucose environment, extracellular acidification rate (ECAR), which measures changes in extracellular pH due to lactic acid production (a byproduct of glycolysis) was determined using Seahorse assays. In this case, although, C57BL/6j bone marrow derived dendritic cells (DCs, another type of phagocytic cell) were utilized, it is believed that CAR macrophages will behave similarly. Specifically, DCs were treated with PFK15 (200 nM), or F16BP particles (0.1 mg/mL) or PFK15+F16BP particles. After 4 hours of treatment with formulations, changes in pH using ECAR were recorded in glucose-free media. In a step-wise manner cells were added with oligomycin to measure ATP production and proton leak, Carbonyl cyanide-4 (trifluoromethoxy) phenylhydrazone (FCCP—disrupts mitochondrial membrane potential) to measure maximal respiration, rotenone and antimycinA (shuts down mitochondrial respiration) to measure spare capacity.

For `O=C(/C=C/c1ccc2ccccc2n1)c1ccncc1` [PFK15], the “ECAR values relative to no treatment control” value was “even lower than no treatment control”.
